Results as given in PubChem BioAssay (NCI).
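All cell lines were grown in 96-well plates and treated with compound for 48 hours. The concentration for full growth arrest is given as TGI.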

Key:
Assay in all cases: inhibition of tumour cell growth, NCI panel, 48 h
ACHN renal = test system: ACHN renal
COLO 205 colon = test system: COLO 205 colon
SNB-75 CNS = test system: SNB-75 CNS
MDA-MB-435 = test system: MDA-MB-435
EKVX NSCLC = test system: EKVX NSCLC
MDA-MB-231 breast = test system: MDA-MB-231 breast
NCI-H23 lung = test system: NCI-H23 lung
HCT-15 colon = test system: HCT-15 colon
A549 NSCLC = test system: A549 NSCLC
786-0 renal = test system: 786-0 renal
A498 renal = test system: A498 renal
K-562 leukemia = test system: K-562 leukemia
CCRF-CEM leukemia = test system: CCRF-CEM leukemia
OVCAR-8 ovarian = test system: OVCAR-8 ovarian
HT29 colon = test system: HT29 colon
U251 CNS = test system: U251 CNS
HOP-92 NSCLC = test system: HOP-92 NSCLC
SR leukemia = test system: SR leukemia
NCI-H522 lung = test system: NCI-H522 lung
HS 578T breast = test system: HS 578T breast
IGROV1 ovarian = test system: IGROV1 ovarian
SNB-19 CNS = test system: SNB-19 CNS
M14 melanoma = test system: M14 melanoma
HCT-116 colon = test system: HCT-116 colon
CAKI-1 renal = test system: CAKI-1 renal
DU-145 prostate = test system: DU-145 prostate
SK-MEL-28 melanoma = test system: SK-MEL-28 melanoma
HOP-62 NSCLC = test system: HOP-62 NSCLC
TK-10 renal = test system: TK-10 renal
MDA-N = test system: MDA-N
NCI-H226 lung = test system: NCI-H226 lung
NCI-H460 lung = test system: NCI-H460 lung
RPMI-8226 leukemia = test system: RPMI-8226 leukemia
NCI/ADR-RES ovarian = test system: NCI/ADR-RES ovarian
PC-3 prostate = test system: PC-3 prostate
UACC-62 melanoma = test system: UACC-62 melanoma
RXF 393 renal = test system: RXF 393 renal
T-47D breast = test system: T-47D breast
SW-620 colon = test system: SW-620 colon
KM12 colon = test system: KM12 colon
SN12C renal = test system: SN12C renal
SF-295 CNS = test system: SF-295 CNS
HCC-2998 colon = test system: HCC-2998 colon
OVCAR-5 ovarian = test system: OVCAR-5 ovarian
SK-MEL-2 melanoma = test system: SK-MEL-2 melanoma
SF-268 CNS = test system: SF-268 CNS
HL-60(TB) leukemia = test system: HL-60(TB) leukemia
UO-31 renal = test system: UO-31 renal
SK-MEL-5 melanoma = test system: SK-MEL-5 melanoma
MCF7 breast = test system: MCF7 breast
OVCAR-3 ovarian = test system: OVCAR-3 ovarian
UACC-257 melanoma = test system: UACC-257 melanoma
SF-539 CNS = test system: SF-539 CNS
MOLT-4 leukemia = test system: MOLT-4 leukemia
BT-549 breast = test system: BT-549 breast
LOX IMVI melanoma = test system: LOX IMVI melanoma
SK-OV-3 ovarian = test system: SK-OV-3 ovarian
OVCAR-4 ovarian = test system: OVCAR-4 ovarian
MALME-3M melanoma = test system: MALME-3M melanoma

`CN(C)Cc1cc(C(=O)/C=C/c2ccc(O)cc2)cc(CN(C)C)c1O` was tested, and the TGI (ACHN renal) was 53.3 µM, the TGI (COLO 205 colon) was 33.9 µM and the TGI (SNB-75 CNS) was 86.3 µM. The TGI (MDA-MB-435) was greater than 100 µM, the TGI (EKVX NSCLC) was greater than 100 µM and the TGI (MDA-MB-231 breast) was 79 µM. The TGI (NCI-H23 lung) was greater than 100 µM, the TGI (HCT-15 colon) was greater than 100 µM and the TGI (A549 NSCLC) was greater than 100 µM. The TGI (786-0 renal) was greater than 100 µM, the TGI (A498 renal) was greater than 100 µM and the TGI (K-562 leukemia) was greater than 100 µM. It also gave a TGI (CCRF-CEM leukemia) of 88.3 µM, a TGI (OVCAR-8 ovarian) greater than 100 µM and a TGI (HT29 colon) greater than 100 µM. It also gave a TGI (U251 CNS) of 32.2 µM, a TGI (HOP-92 NSCLC) greater than 100 µM and a TGI (SR leukemia) of 69.5 µM. The TGI (NCI-H522 lung) was 75.6 µM, the TGI (HS 578T breast) was greater than 100 µM and the TGI (IGROV1 ovarian) was greater than 100 µM. It also gave a TGI (SNB-19 CNS) greater than 100 µM, a TGI (M14 melanoma) greater than 100 µM and a TGI (HCT-116 colon) greater than 100 µM. The TGI (CAKI-1 renal) was greater than 100 µM, the TGI (DU-145 prostate) was greater than 100 µM and the TGI (SK-MEL-28 melanoma) was greater than 100 µM. For the same compound, the TGI (HOP-62 NSCLC) was greater than 100 µM, the TGI (TK-10 renal) was greater than 100 µM and the TGI (MDA-N) was greater than 100 µM. It also gave a TGI (NCI-H226 lung) greater than 100 µM, a TGI (NCI-H460 lung) greater than 100 µM and a TGI (RPMI-8226 leukemia) of 49.8 µM. The TGI (NCI/ADR-RES ovarian) was greater than 100 µM, the TGI (PC-3 prostate) was greater than 100 µM and the TGI (UACC-62 melanoma) was greater than 100 µM. It also gave a TGI (RXF 393 renal) greater than 100 µM, a TGI (T-47D breast) greater than 100 µM and a TGI (SW-620 colon) greater than 100 µM. It also gave a TGI (KM12 colon) greater than 100 µM, a TGI (SN12C renal) of 60.1 µM and a TGI (SF-295 CNS) greater than 100 µM. It also gave a TGI (HCC-2998 colon) greater than 100 µM, a TGI (OVCAR-5 ovarian) greater than 100 µM and a TGI (SK-MEL-2 melanoma) greater than 100 µM. The TGI (SF-268 CNS) was greater than 100 µM, the TGI (HL-60(TB) leukemia) was 49.9 µM and the TGI (UO-31 renal) was greater than 100 µM. For the same compound, the TGI (SK-MEL-5 melanoma) was 38.5 µM, the TGI (MCF7 breast) was greater than 100 µM and the TGI (OVCAR-3 ovarian) was 56.2 µM. The TGI (UACC-257 melanoma) was greater than 100 µM, the TGI (SF-539 CNS) was greater than 100 µM and the TGI (MOLT-4 leukemia) was greater than 100 µM. It also gave a TGI (BT-549 breast) greater than 100 µM and a TGI (LOX IMVI melanoma) greater than 100 µM.

Work on `O=c1c2ccccc2nc2[nH][nH]c(=S)n12` yielded a TGI (ACHN renal) greater than 100 µM, a TGI (COLO 205 colon) greater than 100 µM and a TGI (SNB-75 CNS) greater than 100 µM. It also gave a TGI (MDA-MB-435) greater than 100 µM, a TGI (EKVX NSCLC) greater than 100 µM and a TGI (SK-OV-3 ovarian) greater than 100 µM. It also gave a TGI (MDA-MB-231 breast) greater than 100 µM, a TGI (NCI-H23 lung) greater than 100 µM and a TGI (HCT-15 colon) greater than 100 µM. The TGI (A549 NSCLC) was greater than 100 µM, the TGI (786-0 renal) was greater than 100 µM and the TGI (A498 renal) was greater than 100 µM. The TGI (K-562 leukemia) was greater than 100 µM, the TGI (CCRF-CEM leukemia) was greater than 100 µM and the TGI (OVCAR-8 ovarian) was greater than 100 µM. It also gave a TGI (HT29 colon) greater than 100 µM, a TGI (U251 CNS) greater than 100 µM and a TGI (HOP-92 NSCLC) greater than 100 µM. For the same compound, the TGI (SR leukemia) was greater than 100 µM, the TGI (HS 578T breast) was greater than 100 µM and the TGI (IGROV1 ovarian) was greater than 100 µM. It also gave a TGI (SNB-19 CNS) greater than 100 µM, a TGI (M14 melanoma) greater than 100 µM and a TGI (HCT-116 colon) greater than 100 µM. The TGI (CAKI-1 renal) was greater than 100 µM, the TGI (DU-145 prostate) was greater than 100 µM and the TGI (SK-MEL-28 melanoma) was greater than 100 µM. It also gave a TGI (HOP-62 NSCLC) greater than 100 µM, a TGI (TK-10 renal) greater than 100 µM and a TGI (MDA-N) greater than 100 µM. The TGI (NCI-H226 lung) was greater than 100 µM, the TGI (NCI-H460 lung) was greater than 100 µM and the TGI (RPMI-8226 leukemia) was greater than 100 µM. The TGI (NCI/ADR-RES ovarian) was greater than 100 µM, the TGI (PC-3 prostate) was greater than 100 µM and the TGI (UACC-62 melanoma) was greater than 100 µM. The TGI (T-47D breast) was greater than 100 µM, the TGI (SW-620 colon) was greater than 100 µM and the TGI (KM12 colon) was greater than 100 µM. For the same compound, the TGI (SN12C renal) was greater than 100 µM, the TGI (SF-295 CNS) was greater than 100 µM and the TGI (OVCAR-5 ovarian) was greater than 100 µM. The TGI (SK-MEL-2 melanoma) was greater than 100 µM, the TGI (SF-268 CNS) was greater than 100 µM and the TGI (HL-60(TB) leukemia) was greater than 100 µM. It also gave a TGI (UO-31 renal) greater than 100 µM, a TGI (SK-MEL-5 melanoma) greater than 100 µM and a TGI (MCF7 breast) greater than 100 µM. The TGI (OVCAR-3 ovarian) was greater than 100 µM, the TGI (UACC-257 melanoma) was greater than 100 µM and the TGI (SF-539 CNS) was greater than 100 µM. For the same compound, the TGI (MOLT-4 leukemia) was greater than 100 µM, the TGI (BT-549 breast) was greater than 100 µM and the TGI (LOX IMVI melanoma) was greater than 100 µM.

In the case of `COC(=O)[C@]12CC[C@H]3CN(C(=O)OCc4ccccc4)[C@H]([C@H]31)[C@H](c1ccco1)N2S(=O)(=O)c1ccc(C)cc1`, the TGI (ACHN renal) is reported as greater than 100 µM, the TGI (COLO 205 colon) is reported as 38.4 µM and the TGI (MDA-MB-435) is reported as 67.3 µM. For the same compound, the TGI (EKVX NSCLC) was greater than 100 µM, the TGI (SK-OV-3 ovarian) was greater than 100 µM and the TGI (MDA-MB-231 breast) was greater than 100 µM. For the same compound, the TGI (NCI-H23 lung) was 48.5 µM, the TGI (HCT-15 colon) was 30.8 µM and the TGI (A549 NSCLC) was greater than 100 µM. It also gave a TGI (786-0 renal) of 37.6 µM, a TGI (A498 renal) of 79.7 µM and a TGI (K-562 leukemia) greater than 100 µM. For the same compound, the TGI (CCRF-CEM leukemia) was greater than 100 µM, the TGI (OVCAR-8 ovarian) was greater than 100 µM and the TGI (HT29 colon) was 58.7 µM. For the same compound, the TGI (U251 CNS) was 71.4 µM, the TGI (HOP-92 NSCLC) was 56.1 µM and the TGI (OVCAR-4 ovarian) was greater than 100 µM. For the same compound, the TGI (SR leukemia) was 81 µM, the TGI (NCI-H522 lung) was 45.7 µM and the TGI (HS 578T breast) was greater than 100 µM. It also gave a TGI (IGROV1 ovarian) of 57.1 µM, a TGI (SNB-19 CNS) greater than 100 µM and a TGI (M14 melanoma) of 44.6 µM. The TGI (HCT-116 colon) was 29.2 µM, the TGI (CAKI-1 renal) was 89.4 µM and the TGI (DU-145 prostate) was greater than 100 µM. For the same compound, the TGI (SK-MEL-28 melanoma) was greater than 100 µM, the TGI (HOP-62 NSCLC) was 74.2 µM and the TGI (TK-10 renal) was 90.2 µM. It also gave a TGI (MDA-N) of 50.4 µM, a TGI (NCI-H226 lung) of 58.7 µM and a TGI (NCI-H460 lung) of 87.8 µM. For the same compound, the TGI (MALME-3M melanoma) was 38.3 µM, the TGI (RPMI-8226 leukemia) was 35.9 µM and the TGI (NCI/ADR-RES ovarian) was 61.2 µM. For the same compound, the TGI (PC-3 prostate) was greater than 100 µM, the TGI (UACC-62 melanoma) was 36.1 µM and the TGI (RXF 393 renal) was 38.1 µM. The TGI (T-47D breast) was 93 µM, the TGI (SW-620 colon) was greater than 100 µM and the TGI (KM12 colon) was 38.5 µM. It also gave a TGI (SN12C renal) of 39 µM, a TGI (SF-295 CNS) of 81.9 µM and a TGI (HCC-2998 colon) of 34.5 µM. It also gave a TGI (OVCAR-5 ovarian) greater than 100 µM, a TGI (SK-MEL-2 melanoma) of 49.3 µM and a TGI (SF-268 CNS) of 59.3 µM. It also gave a TGI (HL-60(TB) leukemia) of 58.7 µM, a TGI (UO-31 renal) of 46.6 µM and a TGI (SK-MEL-5 melanoma) of 33.3 µM. For the same compound, the TGI (MCF7 breast) was 42 µM, the TGI (OVCAR-3 ovarian) was 40.4 µM and the TGI (UACC-257 melanoma) was 50.9 µM. The TGI (SF-539 CNS) was greater than 100 µM, the TGI (MOLT-4 leukemia) was greater than 100 µM and the TGI (BT-549 breast) was 35.6 µM. It also gave a TGI (LOX IMVI melanoma) of 32.3 µM.
